# Test results as given in US11957783B2, “Topical immunosensitizers to treat viral and fungal infections” (Squarex, LLC, priority 2018, dated 2024).
# Marks after values point to notes of the source that are not given here.
# Test system: peripheral blood mononuclear cells (PBMC)
# Assay: Cytokine and immune-function gene expression of PBMC in vitro (qRT-PCR, 41 immune-related genes)
# Format: cell-based, human
# Protocol: After a screening visit at which blood was drawn to test for IgG antibody against HSV-1 and subjects were interviewed for inclusion/exclusion criteria, selected subjects returned for blood draws on day 1. After the blood draw on day 1, subjects in group A only were dosed with SADBE. A petrolatum donut was applied with a cotton swab to form about a 1 cm diameter donut on skin on the inner aspect of the upper arm. Then a separate cotton swab was dipped in a 2% SADBE solution (w/v) in DMSO, and the swab was then used to apply about 10-20 mg of solution over about a 1 cm diameter circle within the petrolatum donut. Immediately after application, the application site was covered with TEGADERM. Subjects were advised to remove the TEGADERM and rinse and wipe the spot three hours later. The group A subjects then returned for blood draws on days 15 and 57 and were queried about adverse events on those dates.
# PBMC were isolated using SepMate PBMC isolation tubes (Stem Cell Technologies, Vancouver, Canada) and Ficoll-Paque according to the manufacturer's instructions. PBMC were isolated and suspended in negative control medium at 2 million cells/ml. PBMC suspension (100 μL) was added to 100 μL of medium in quadruplicate in 96-well plates. The plates were prepared in advance and stored at −70° C. The wells were in five different conditions in quadruplicate with these final concentrations after addition of the 100 μL of PBMC suspension in negative control medium. • 1. Negative control in medium (RPMI with glutamine and pen/strep, supplemented with 10% human A/B serum). • 2. Medium plus 16 μg/ml protein from heat-inactivated HSV-1-infected Vero cell extracts. • 3. Medium plus heat-inactivated HSV-1 cell-free virus at a final 7.5 million pfu/ml. • 4. Medium plus Candida cell extract. (Greer item number M15A50, 20,000 pnu/ml allergenic extract mixed molds Candida albicans, was diluted 1/50 into medium). • 5. Positive control, medium plus 10 μg/ml concanavalin A.
# Two plates were created for each subject at each collection point. One plate was incubated for 2 days at 37° C. in a humidified 5% CO2 atmosphere and then RNA was isolated from the pooled contents of the 4 wells of a given condition for a specific patient, and the RNA was stored at −70° C. and subsequently used for quantitative real time PCR analysis of gene expression of 41 immune-related genes.
# As noted above, after 2 days of growth of the PBMC in a 37° C. humidified 5% CO2 incubator in a 96-well plate, four wells of a single condition (negative control, positive control, heat-inactivated HSV-1, HSV-1-infected cell extracts, or Candida extract) with cells from a single subject (200 μL in each well) were pooled, and the RNA was immediately isolated with Trizol reagent and chloroform by Qiagen RNeasy MiniElute clean up kit Qiagen cat #74204, according to manufacturer's instructions into a final volume of 13 μL, and then flash frozen on powdered dry ice, and stored at −70° C. in aliquots of 3 μL for RNA quantification and 10 μL for PCR analysis.
# RNA was preamplified with the Qiagen RT2 PreAMP cDNA synthesis kit (Ref. 330451) and custom RT2 PreAmp primer mix (Ref. 330141) starting with about 50 ng RNA according to the procedure of RT preamp cDNA synthesis handbook date March 2011, pages 17-20. The amplification reactions (final 120 μL) were frozen at −70° C. and used for qPCR analysis the next day.
# qPCR was done with the Qiagen RT PCR profiler gene analysis kit (catalog number 330451) using RT2 Sybr Green Rox qPCR Mastermix (24) (Part 330523) and Custom RT2 PCR array plates (Ref. 330171). For this 675 μL 2×RT2 SYBR green mastermix, 51 μL pre-AMP synthesis reaction, and 623 μL RNase free water were mixed, and then 25 μL of the mixture was added to 48 wells on the left or right half of the custom PCR plate. The PCR instrument was Applied Biosystems 7900HT fast real time PCR. […]
# [1] = PBMC + Candida extract, group A day 57 vs day 1 (pre-dose), one topical 2% SADBE dose
# [2] = PBMC + HSV-1-infected cell extracts (CE), group A day 57 vs day 1 (pre-dose), one topical 2% SADBE dose
# [3] = PBMC + heat-killed HSV-1 virus, group A day 57 vs day 1 (pre-dose), one topical 2% SADBE dose
smiles,measurement,setting,value
"CCCCOc1c(OCCCC)c(=O)c1=O [SADBE, 3,4-Dibutoxy-3-cyclobutene-1,2-dione]",ratio of absolute expression in A57 vs. A1: FOXP3,[1],2.01
same,ratio of absolute expression in A57 vs. A1: GATA3,[1],0.28
same,ratio of absolute expression in A57 vs. A1: ICAM1,[1],1.27
same,ratio of absolute expression in A57 vs. A1: IFNA1,[1],2.13
same,ratio of absolute expression in A57 vs. A1: IFNB1,[1],0.93
same,ratio of absolute expression in A57 vs. A1: IFNG,[1],8.54
same,ratio of absolute expression in A57 vs. A1: IL1B,[1],1.73
same,ratio of absolute expression in A57 vs. A1: IL1R1,[1],0.9
same,ratio of absolute expression in A57 vs. A1: IL1RN,[1],1.91
same,ratio of absolute expression in A57 vs. A1: IL2,[1],6.31
same,ratio of absolute expression in A57 vs. A1: IL4,[1],1.52
same,ratio of absolute expression in A57 vs. A1: IL5,[1],1.1
same,ratio of absolute expression in A57 vs. A1: IL8,[1],1.89
same,ratio of absolute expression in A57 vs. A1: IL10,[1],1.12
same,ratio of absolute expression in A57 vs. A1: IL12A,[1],1.64
same,ratio of absolute expression in A57 vs. A1: IL12B,[1],3.61
same,ratio of absolute expression in A57 vs. A1: IL13,[1],4.28
same,ratio of absolute expression in A57 vs. A1: IL15,[1],2.18
same,ratio of absolute expression in A57 vs. A1: IL16,[1],0.81
same,ratio of absolute expression in A57 vs. A1: JAK2,[1],1.68
same,ratio of absolute expression in A57 vs. A1: LTA,[1],1.94
same,ratio of absolute expression in A57 vs. A1: LYZ,[1],0.93
same,ratio of absolute expression in A57 vs. A1: MX1,[1],1.34
same,ratio of absolute expression in A57 vs. A1: NOD1,[1],1.18
same,ratio of absolute expression in A57 vs. A1: SPP1,[1],7.34
same,ratio of absolute expression in A57 vs. A1: STAT1,[1],3.36
same,ratio of absolute expression in A57 vs. A1: STAT4,[1],1.76
same,ratio of absolute expression in A57 vs. A1: TNF,[1],1.22
same,ratio of absolute expression in A57 vs. A1: TNFSF10,[1],1.52
same,ratio of absolute expression in A57 vs. A1: TNFSF13B,[1],1.62
same,ratio of absolute expression in A57 vs. A1: CCL2,[2],1.21
same,ratio of absolute expression in A57 vs. A1: CCL3,[2],4.6
same,ratio of absolute expression in A57 vs. A1: CCL7,[2],0.75
same,ratio of absolute expression in A57 vs. A1: CCR5,[2],0.93
same,ratio of absolute expression in A57 vs. A1: CD80,[2],0.93
same,ratio of absolute expression in A57 vs. A1: CXCL2,[2],2.79
same,ratio of absolute expression in A57 vs. A1: CXCL5,[2],6.03
same,ratio of absolute expression in A57 vs. A1: CXCL9,[2],0.91
same,ratio of absolute expression in A57 vs. A1: CXCL10,[2],0.49
same,ratio of absolute expression in A57 vs. A1: CXCL11,[2],0.31
same,ratio of absolute expression in A57 vs. A1: DDX58,[2],0.94
same,ratio of absolute expression in A57 vs. A1: FOXP3,[2],1.11
same,ratio of absolute expression in A57 vs. A1: GATA3,[2],2.6
same,ratio of absolute expression in A57 vs. A1: ICAM1,[2],0.77
same,ratio of absolute expression in A57 vs. A1: IFNA1,[2],1.29
same,ratio of absolute expression in A57 vs. A1: IFNB1,[2],0.65
same,ratio of absolute expression in A57 vs. A1: IFNG,[2],5.72
same,ratio of absolute expression in A57 vs. A1: IL1B,[2],21.45
same,ratio of absolute expression in A57 vs. A1: IL1R1,[2],1.11
same,ratio of absolute expression in A57 vs. A1: IL1RN,[2],0.79
same,ratio of absolute expression in A57 vs. A1: IL2,[2],2.48
same,ratio of absolute expression in A57 vs. A1: IL4,[2],0.89
same,ratio of absolute expression in A57 vs. A1: IL5,[2],0.5
same,ratio of absolute expression in A57 vs. A1: IL8,[2],3.86
same,ratio of absolute expression in A57 vs. A1: IL10,[2],3.29
same,ratio of absolute expression in A57 vs. A1: IL12A,[2],0.89
same,ratio of absolute expression in A57 vs. A1: IL12B,[2],0.23
same,ratio of absolute expression in A57 vs. A1: IL13,[2],2.28
same,ratio of absolute expression in A57 vs. A1: IL15,[2],0.87
same,ratio of absolute expression in A57 vs. A1: IL16,[2],1.02
same,ratio of absolute expression in A57 vs. A1: JAK2,[2],0.82
same,ratio of absolute expression in A57 vs. A1: LTA,[2],0.99
same,ratio of absolute expression in A57 vs. A1: LYZ,[2],0.29
same,ratio of absolute expression in A57 vs. A1: MX1,[2],0.66
same,ratio of absolute expression in A57 vs. A1: NOD1,[2],0.89
same,ratio of absolute expression in A57 vs. A1: SPP1,[2],5.38
same,ratio of absolute expression in A57 vs. A1: STAT1,[2],0.91
same,ratio of absolute expression in A57 vs. A1: STAT4,[2],1.01
same,ratio of absolute expression in A57 vs. A1: TNF,[2],1.2
same,ratio of absolute expression in A57 vs. A1: TNFSF10,[2],0.88
same,ratio of absolute expression in A57 vs. A1: TNFSF1313,[2],1.07
same,ratio of absolute expression in A57 vs. A1: CCL2,[3],1.71
same,ratio of absolute expression in A57 vs. A1: CCL3,[3],3.73
same,ratio of absolute expression in A57 vs. A1: CCL7,[3],1.81
same,ratio of absolute expression in A57 vs. A1: CCR5,[3],1.35
same,ratio of absolute expression in A57 vs. A1: CD80,[3],1.25
same,ratio of absolute expression in A57 vs. A1: CXCL2,[3],1.58
same,ratio of absolute expression in A57 vs. A1: CXCL5,[3],2.52
same,ratio of absolute expression in A57 vs. A1: CXCL9,[3],2.5
same,ratio of absolute expression in A57 vs. A1: CXCL10,[3],1
same,ratio of absolute expression in A57 vs. A1: CXCL11,[3],0.4
same,ratio of absolute expression in A57 vs. A1: DDX58,[3],0.95
same,ratio of absolute expression in A57 vs. A1: FOXP3,[3],2.46
same,ratio of absolute expression in A57 vs. A1: GATA3,[3],0.32
same,ratio of absolute expression in A57 vs. A1: ICAM1,[3],1.07
same,ratio of absolute expression in A57 vs. A1: IFNA1,[3],1.34
same,ratio of absolute expression in A57 vs. A1: IFNB1,[3],0.87
same,ratio of absolute expression in A57 vs. A1: IFNG,[3],11.01
same,ratio of absolute expression in A57 vs. A1: IL1B,[3],5.09
same,ratio of absolute expression in A57 vs. A1: IL1R1,[3],0.97
same,ratio of absolute expression in A57 vs. A1: IL1RN,[3],1.48
same,ratio of absolute expression in A57 vs. A1: IL2,[3],2.11
same,ratio of absolute expression in A57 vs. A1: IL4,[3],1.32
same,ratio of absolute expression in A57 vs. A1: IL5,[3],0.56
same,ratio of absolute expression in A57 vs. A1: IL8,[3],3.3
same,ratio of absolute expression in A57 vs. A1: IL10,[3],2.29
same,ratio of absolute expression in A57 vs. A1: IL12A,[3],1.48
same,ratio of absolute expression in A57 vs. A1: IL12B,[3],2.08
same,ratio of absolute expression in A57 vs. A1: IL13,[3],3.02
same,ratio of absolute expression in A57 vs. A1: IL15,[3],1.54
same,ratio of absolute expression in A57 vs. A1: IL16,[3],0.82
same,ratio of absolute expression in A57 vs. A1: JAK2,[3],1.26
same,ratio of absolute expression in A57 vs. A1: LTA,[3],1.84
same,ratio of absolute expression in A57 vs. A1: LYZ,[3],0.53
same,ratio of absolute expression in A57 vs. A1: MX1,[3],0.66
same,ratio of absolute expression in A57 vs. A1: NOD1,[3],1.14
same,ratio of absolute expression in A57 vs. A1: SPP1,[3],15.29
same,ratio of absolute expression in A57 vs. A1: STAT1,[3],1.41
same,ratio of absolute expression in A57 vs. A1: STAT4,[3],1.69
same,ratio of absolute expression in A57 vs. A1: TNF,[3],1.19
same,ratio of absolute expression in A57 vs. A1: TNFSF10,[3],1.01
same,ratio of absolute expression in A57 vs. A1: TNFSF13B,[3],1.23
same,Ratio of absolute IFNG gene expression in group A vs. Groups B + C pooled,"Virus, group A day 57 after SADBE",3.359*
same,IFNG expression in group A on day 57 than day 1,"all three stimuli, PBMC",at least 8 fold
